According to patent publication US20260007681A1, “INDOLE DERIVATIVES AS ESTROGEN RECEPTOR DEGRADERS” (REGENTS OF THE UNIVERSITY OF MICHIGAN, priority 2022, published 2026):
Read-outs that look alike come from different tables or passages of the source.

Columns and labels:
Format in all cases: cell-based
[1] = biological target: ER in T47D cells (Homo sapiens (Human), UniProt P03372); assay: In-cell western (ICW) ER degradation assay in T47D cells (Compounds A1-A70); conditions: for DC50: ER degradation, 0.02 to 300 nM; for Dmax: T47D, read-out: T47D ICW Dmax (%)
ER in T47D cells, sequence (P03372 whole entry): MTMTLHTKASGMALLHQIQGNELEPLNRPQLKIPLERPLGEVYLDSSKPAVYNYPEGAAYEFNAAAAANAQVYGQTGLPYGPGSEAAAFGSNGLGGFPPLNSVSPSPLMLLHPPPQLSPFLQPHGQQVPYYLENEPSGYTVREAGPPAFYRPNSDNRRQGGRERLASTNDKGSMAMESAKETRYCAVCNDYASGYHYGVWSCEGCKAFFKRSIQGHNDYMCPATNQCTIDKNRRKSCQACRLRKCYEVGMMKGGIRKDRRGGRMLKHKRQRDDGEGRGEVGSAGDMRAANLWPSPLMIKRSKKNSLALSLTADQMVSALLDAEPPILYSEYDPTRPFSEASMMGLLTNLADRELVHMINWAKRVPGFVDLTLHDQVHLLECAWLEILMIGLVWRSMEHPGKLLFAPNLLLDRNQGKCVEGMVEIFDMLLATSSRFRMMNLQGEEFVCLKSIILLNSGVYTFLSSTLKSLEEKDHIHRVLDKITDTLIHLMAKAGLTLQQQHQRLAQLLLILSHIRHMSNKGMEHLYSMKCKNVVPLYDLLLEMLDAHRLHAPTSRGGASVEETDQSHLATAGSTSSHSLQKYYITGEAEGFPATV
Method: (§1) ERa degradative activity of compounds can be assessed in MCF-7 and T47D Cells. MCF-7 and T47D cell are seeded and are subsequently treated with the compounds at certain concentrations (e.g., 0.02 to 300 nM). DMSO can be used as vehicle control. Cells are fixed and are blocked with Intercept (PBS) Blocking Buffer (e.g., Li—COR, Odyssey Blocking Buffer), and are stained with ER (e.g., 1:500, Cell signaling) primary antibody for overnight at cold room. Secondary Antibody (e.g., IRDye 800CW Goat anti-Rabbit IgG) and CellTag 700 Stain are added in Intercept (PBS) Blocking Buffer. Finally, cell plate is placed in incubator to dry. Image and signal are captured on Odyssey® DLx Imaging System.
(§2) Day 3: After 16 hrs of compounds treatment, cells were fixed by 4% PFA and permeabilized with elution buffer (0.1% Triton X-100 in 1% PBS Solution). Subsequently, cells were blocked with Intercept (PBS) Blocking Buffer (Li—COR, Odyssey Blocking Buffer), and were stained with ER (1:500, Cell signaling) primary antibody for overnight at cold room.
(§3) Day 4: Remove the buffer, add IRDye 800CW Goat anti-Rabbit IgG Secondary Antibody (1:2000) and CellTag 700 Stain (1:500) in Intercept (PBS) Blocking Buffer. Finally, cell plate is placed in incubator to dry. Image and signal were captured on Odyssey® DLx Imaging System.

[2] = biological target: ER in MCF-7 cells (Homo sapiens (Human), UniProt P03372); assay: In-cell western (ICW) ER degradation assay in MCF-7 cells (Compounds A1-A70); conditions: for DC50: ER degradation, MCF-7 cells, 16 hrs treatment, 0.02 to 300 nM, read-out: MCF7 ICW DC50; for Dmax: MCF7, read-out: MCF7 ICW Dmax (%)
ER in MCF-7 cells, sequence (P03372 whole entry): as above
Method: as §1, §2, §3

[3] = biological target: ER (Homo sapiens (Human), UniProt P03372); assay: In-cell western blot analysis of relative ER percentage (Compounds B1-B278); conditions: ER degradation, 16 hours, read-out: ICW DC50
ER, sequence (P03372 whole entry): as above
How it was run: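 In-cell western: after 16 h compound exposure (0.5% DMSO final), fixed and permeabilized cells are probed with anti-ER plus anti-GAPDH and near-infrared secondaries. Relative ER percentage compares treated wells against untreated and DMSO wells taken as 100%; seeding 40,000 or 10,000 cells/well.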

[4] = Cell growth assay (WST-8) (Compounds B1-B278); conditions: T47D cell line, WST-8, 4 days, read-out: Cell Growth Inhibition in T47D cell line IC50
How it was run: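 Read-out is WST-8 absorbance at 450 nm (2.5 h, 37° C) as a fraction of vehicle control, from three separate repeats. Compound exposure lasted 4 days, starting one day after plating 1500 cells/well.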

Row | DC50 [3] [nM] | SMILES | IC50 ([4]; 96 h) [nM] | further results
1 | – | COc1cc(N2CCC(CN3CCN4c5cc6c(cc5OC[C@H]4C3)C(=O)N([C@@H]3CCC(=O)NC3=O)C6)CC2)ccc1[C@@H]1c2[nH]c3ccccc3c2C[C@@H](C)N1CC(F)F [Compound A48, (R)-3-((R)-3-((1-(4-((1R,3R)-2-(2,2-difluoroethyl)-3-methyl-2,3,4,9-tetrahydro-1H-pyrido[3,4-b]indol-1-yl)-3-methoxyphenyl)piperidin-4-yl)methyl)-8-oxo-1,2,3,4,4a,5,8,10-octahydro-9H-pyrazino[1′,2′:4,5][1,4]oxazino[2,3-f]isoindol-9-yl)piperidine-2,6-dione] | – | DC50 ([1]; T47D cells, 16 hrs treatment): < 1 nM; Dmax ([1]; maximal ER degradation, T47D cells, 16 hrs treatment): > 75%; DC50 [2]: < 1 nM; Dmax [2]: > 75%
2 | – | C[C@H]1Cc2c([nH]c3ccccc23)[C@H](c2cnc(N3CCC4(CC3)C[C@@H](CN3CCN5c6cc7c(cc6OC[C@@H]5C3)C(=O)N([C@@H]3CCC(=O)NC3=O)C7)CO4)nc2)N1CC(F)F [Compound A68, (R)-3-((S)-3-(((S)-8-(5-((1S,3S)-2-(2,2-difluoroethyl)-3-methyl-2,3,4,9-tetrahydro-1H-pyrido[3,4-b]indol-1-yl)pyrimidin-2-yl)-1-oxa-8-azaspiro[4.5]decan-3-yl)methyl)-8-oxo-1,2,3,4,4a,5,8,10-octahydro-9H-pyrazino[1′,2′:4,5][1,4]oxazino[2,3-f]isoindol-9-yl)piperidine-2,6-dione] | – | DC50 ([1]; T47D cells, 16 hrs treatment): < 1 nM; Dmax [1]: > 75%; DC50 [2]: < 1 nM; Dmax [2]: 50 to 75%
3 | < 10 | C[C@@H]1Cc2c([nH]c3ccccc23)[C@@H](c2cnc(N3CCC4(CC3)CC(CN3CCN5c6ccc7c(c6OC[C@H]5C3)CN(C3CCC(=O)NC3=O)C7=O)C4)nc2)N1CC(C)(C)F (stereo partly drawn) [Compound B180, 3-((R)-7-((7-(5-((1R,3R)-2-(2-fluoro-2-methylpropyl)-3-methyl-2,3,4,9-tetrahydro-1H-pyrido[3,4-b]indol-1-yl)pyrimidin-2-yl)-7-azaspiro[3.5]nonan-2-yl)methyl)-1-oxo-1,3,5,5a,6,7,8,9-octahydro-2H-pyrazino[1′,2′:4,5][1,4]oxazino[2,3-e]isoindol-2-yl)piperidine-2,6-dione] | 1 to 10 | –
4 | 10 to 100 | C[C@@H]1Cc2c([nH]c3ccccc23)[C@@H](c2cnc(N3CC4(CCC(CN5CCN6c7ccc8c(c7OC[C@H]6C5)CN(C5CCC(=O)NC5=O)C8=O)CC4)C3)nc2)N1CC1(F)CC1 (stereo partly drawn) [Compound B260, 3-((R)-7-((2-(5-((1R,3R)-2-((1-fluorocyclopropyl)methyl)-3-methyl-2,3,4,9-tetrahydro-1H-pyrido[3,4-b]indol-1-yl)pyrimidin-2-yl)-2-azaspiro[3.5]nonan-7-yl)methyl)-1-oxo-1,3,5,5a,6,7,8,9-octahydro-2H-pyrazino[1′,2′:4,5][1,4]oxazino[2,3-e]isoindol-2-yl)piperidine-2,6-dione] | 1 to 10 | –
5 | > 100 | C[C@@H]1Cc2c([nH]c3ccccc23)[C@@H](c2cnc(N3CCC(CCN4CCN5c6ccc7c(c6OC[C@H]5C4)CN(C4CCC(=O)NC4=O)C7=O)CC3)nc2)N1CC(F)(F)CO (stereo partly drawn) [Compound B159, 3-((R)-7-(2-(1-(5-((1R,3R)-2-(2,2-difluoro-3-hydroxypropyl)-3-methyl-2,3,4,9-tetrahydro-1H-pyrido[3,4-b]indol-1-yl)pyrimidin-2-yl)piperidin-4-yl)ethyl)-1-oxo-1,3,5,5a,6,7,8,9-octahydro-2H-pyrazino[1′,2′:4,5][1,4]oxazino[2,3-e]isoindol-2-yl)piperidine-2,6-dione] | > 10 | –
6 | 10 to 100 | C[C@@H]1Cc2c([nH]c3ccccc23)[C@@H](c2c(F)cc(N3CCC4(CC3)CC(CN3CCN5c6ccc7c(c6OC[C@H]5C3)CN(C3CCC(=O)NC3=O)C7=O)CO4)cc2F)N1CC(F)(F)CO (stereo partly drawn) [Compound B266, 3-((5aR)-7-((8-(4-((1R,3R)-2-(2,2-difluoro-3-hydroxypropyl)-3-methyl-2,3,4,9-tetrahydro-1H-pyrido[3,4-b]indol-1-yl)-3,5-difluorophenyl)-1-oxa-8-azaspiro[4.5]decan-3-yl)methyl)-1-oxo-1,3,5,5a,6,7,8,9-octahydro-2H-pyrazino[1′,2′:4,5][1,4]oxazino[2,3-e]isoindol-2-yl)piperidine-2,6-dione] | 1 to 10 | –
7 | < 10 | COc1cc(N2CCC3(CC2)CC(CN2CCN4c5ccc6c(c5OC[C@H]4C2)CN(C2CCC(=O)NC2=O)C6=O)CO3)ccc1[C@@H]1c2[nH]c3ccccc3c2C[C@@H](C)N1CC(F)F (stereo partly drawn) [Compound B143, 3-((5aR)-7-((8-(4-((1R,3R)-2-(2,2-difluoroethyl)-3-methyl-2,3,4,9-tetrahydro-1H-pyrido[3,4-b]indol-1-yl)-3-methoxyphenyl)-1-oxa-8-azaspiro[4.5]decan-3-yl)methyl)-1-oxo-1,3,5,5a,6,7,8,9-octahydro-2H-pyrazino[1′,2′:4,5][1,4]oxazino[2,3-e]isoindol-2-yl)piperidine-2,6-dione] | < 1 | –
8 | > 100 | C[C@@H]1Cc2c([nH]c3ccccc23)[C@@H](c2cnc(N3CCC(CN4CCN5c6ccc7c(c6OC[C@H]5C4)CN(C4CCC(=O)NC4=O)C7=O)CC3)nc2)N1CC(C)(C)F (mixture of isomers) [Compound B256, 3-((RS)-7-((1-(5-((1R,3R)-2-(2-fluoro-2-methylpropyl)-3-methyl-2,3,4,9-tetrahydro-1H-pyrido[3,4-b]indol-1-yl)pyrimidin-2-yl)piperidin-4-yl)methyl)-1-oxo-1,3,5,5a,6,7,8,9-octahydro-2H-pyrazino[1′,2′:4,5][1,4]oxazino[2,3-e]isoindol-2-yl)piperidine-2,6-dione] | < 1 | –
9 | > 100 | C[C@@H]1Cc2c([nH]c3ccccc23)[C@@H](c2cnc(N3CCC(CN4CCN5c6ccc7c(c6OC[C@@H]5C4)CN(C4CCC(=O)NC4=O)C7=O)CC3)nc2)N1CC(C)(C)F (stereo partly drawn) [Compound B258, 3-((S)-7-((1-(5-((1R,3R)-2-(2-fluoro-2-methylpropyl)-3-methyl-2,3,4,9-tetrahydro-1H-pyrido[3,4-b]indol-1-yl)pyrimidin-2-yl)piperidin-4-yl)methyl)-1-oxo-1,3,5,5a,6,7,8,9-octahydro-2H-pyrazino[1′,2′:4,5][1,4]oxazino[2,3-e]isoindol-2-yl)piperidine-2,6-dione] | < 1 | –
10 | > 100 | C[C@@H]1Cc2c([nH]c3ccccc23)[C@@H](c2cnc(N3CCC4(CC3)CC(N3CCN5c6ccc7c(c6OC[C@H]5C3)CN(C3CCC(=O)NC3=O)C7=O)C4)nc2)N1CC(F)F (stereo partly drawn) [Compound B155, 3-((R)-7-(7-(5-((1R,3R)-2-(2,2-difluoroethyl)-3-methyl-2,3,4,9-tetrahydro-1H-pyrido[3,4-b]indol-1-yl)pyrimidin-2-yl)-7-azaspiro[3.5]nonan-2-yl)-1-oxo-1,3,5,5a,6,7,8,9-octahydro-2H-pyrazino[1′,2′:4,5][1,4]oxazino[2,3-e]isoindol-2-yl)piperidine-2,6-dione] | 1 to 10 | –
11 | > 100 | C[C@@H]1Cc2c([nH]c3ccccc23)[C@@H](c2cnc(N3CCC(CN4CCN5c6ccc7c(c6OC[C@H]5C4)CN(C4CCC(=O)NC4=O)C7=O)CC3)nc2)N1CC(F)F (mixture of isomers) [Compound B255, 3-((RS)-7-((1-(5-((1R,3R)-2-(2,2-difluoroethyl)-3-methyl-2,3,4,9-tetrahydro-1H-pyrido[3,4-b]indol-1-yl)pyrimidin-2-yl)piperidin-4-yl)methyl)-1-oxo-1,3,5,5a,6,7,8,9-octahydro-2H-pyrazino[1′,2′:4,5][1,4]oxazino[2,3-e]isoindol-2-yl)piperidine-2,6-dione] | – | IC50 [4]: < 1 nM

Row | SMILES | DC50 [3] [nM] | IC50 ([4]; 96 h) [nM] | further results
12 | COc1cc(N2CCC3(CCN(C(=O)CN4Cc5cc6c(cc5C4)C(=O)N(C4CCC(=O)NC4=O)C6=O)CC3)CC2)ccc1[C@@H]1c2[nH]c3ccccc3c2C[C@@H](C)N1CC(F)F (stereo partly drawn) [Compound B128, 6-(2-(9-(4-((1R,3R)-2-(2,2-difluoroethyl)-3-methyl-2,3,4,9-tetrahydro-1H-pyrido[3,4-b]indol-1-yl)-3-methoxyphenyl)-3,9-diazaspiro[5.5]undecan-3-yl)-2-oxoethyl)-2-(2,6-dioxopiperidin-3-yl)-6,7-dihydropyrrolo[3,4-f]isoindole-1,3(2H,5H)-dione] | < 10 | 1 to 10 | –
